Assay results from paper PMC10671052, “Naphthyl-Substituted Indole and Pyrrole Carboxylic Acids as Effective Antibiotic Potentiators—Inhibitors of Bacterial Cystathionine γ-Lyase” (International Journal of Molecular Sciences, 2023).
Where two headings read alike, the source gives them in different places.

Legend:
[1] = system: P. aeruginosa GIMC5016:PA1840/36/2015; experiment: Susceptibility of isolate to main antimicrobial agents; type: cell-based
[2] = system: P. aeruginosa GIMC5016:PA1840/36/2015; experiment: MIC of antibiotics alone and with potentiators, clinical isolate; conditions: P. aeruginosa GIMC5016:PA1840/36/2015, no potentiator
Description: Overnight (ON) culture of a specific strain was grown in the liquid Luria–Bertani nutrient medium (LB broth, BD Difco) for 18 h at 37 °C, with agitation at 180 rpm using an Innova 44R orbital shaker (Eppendorf, Hamburg, Germany). After a certain period, 50 µL of the ON culture was transferred into 5 mL of the LB medium and grown for 3 h at 37 °C with agitation. Growth in the liquid medium was assessed by means of turbidity of the suspension, measured using a Densi-La-Meter II densitometer (Erba Lachema s.r.o., Brno, Czech Republic). Then, the bacterial suspension was diluted to the concentration 10^6 cells/mL with sterile LB and used as a seed culture [38, 39].
For the assessment of MICs, 96-well microtiter plates were utilized at 200 µL of a medium per well. Each well was filled with 100 µL of the seed culture. After that, 10 µL of a solution of each tested synthetic compound (potentiators) was added into each experimental well. Finally, 90 µL of twofold serial dilutions of an antibiotic in a sterile LB was added into individual wells.
As a positive control, we set up wells with 100 µL of the bacterial culture and 100 µL of the sterile LB medium. […] Negative-control wells contained 200 µL of the sterile medium. The plates were incubated in a thermostat for 18–20 h at 37 °C. The bacterial growth was assessed as optical density at 600 nm on a CLARIOstar microplate reader (BMG LABTECH GmbH, Ortenberg, Germany)).

[3] = biological target: S. aureus cystathionine-γ-lyase (bCSE) (Staphylococcus aureus, UniProt A0A0H3K724); experiment: IC50 assay: inhibition of H2S production by purified bCSE, WSP5 fluorescent probe; type: biochemical
Description: (§1) Fluorescence spectrophotometry-based inhibitory activity toward purified bCSE and hCSE was measured in a 96-well nonbinding black plate (Greiner, Kremsmunster, Austria) at 100 μL of the reaction mixture per well. bCSE and hCSE (0.02 μM) were preincubated in a thermoshaker (Biosan, Riga, Latvia) (30 °C, 300 rpm) for 40 min in 50 mM sodium phosphate buffer (pH 8.0), supplemented with 10 μM pyridoxal 5′-phosphate (Sigma-Aldrich, St. Louis, MO, USA), 0.1% of Tween 20 (Sigma-Aldrich, St. Louis, MO, USA), and 1.2 μM Washington State Probe-5 (Cayman Chemical, Ann Arbor, MI, USA) (excitation: 500 nm, emission: 530 nm) at different concentrations of a tested inhibitor. The reaction was initiated by the addition of 100 μM L-cysteine (TCI, Chennai, Tamil Nadu, India) in 50 mM sodium phosphate buffer pH 8.0 to the reaction mixture, and the enzymatic activity was monitored for 12 h using a CLARIOstar Plus instrument (BMG LABTECH GmbH, Ortenberg, Germany). The 100 µM L-cysteine concentration used in the experiments corresponds to the maximal reported intracellular concentration in bacteria. The data were normalized to the positive and negative controls, and IC50 values were obtained by fitting to a four-parameter sigmoidal curve (inhibitor vs. response, variable slope model) in GraphPad Prism 8 software (GraphPad by Dotmatics, Boston, MA, USA). Each experiment was conducted with 2–3 technical replicates. IC50 values were means of at least two independent experiments.
(§2) For the production of S. aureus cystathionine-γ-lyase (bCSE) and of human cystathionine-γ-lyase (hCSE), plasmids pSUMO:saCSE (Addgene # 54336) and pNIC28-Bsa4 (Addgene # 42365) were employed. Cultivation of a competent E. coli cell strain (Thermo Fisher Scientific, Waltham, MA, USA), transformed with a target plasmid, was carried out on a selective solid medium with kanamycin. Bacterial cells harboring the plasmid vector were cultured at 37 °C and 180 rpm until OD600 = 0.65. Then, isopropyl β-D1-thiogalactopyranoside (IPTG) was added to a final concentration of 1 mM. To obtain bCSE, the cells were cultured for 3.5 h at 37 °C; to obtain hCSE, the cells were cultured for 18–20 h at 25 °C. After centrifugation, cells were resuspended in a buffer composed of 50 mM Tris–HCl, at a pH of 8.0, and 300 mM sodium chloride. After that, the cells were lysed by ultrasonication, with a pulse duration of 15 s and an interval between pulses of 15 s. The amplitude of the ultrasonic vibrations was 50% of the maximum. After lysis, samples were centrifuged for 15 min (20,000× g at 4 ℃). The pH of the supernatant obtained after the centrifugation was adjusted to 7.5 by the addition of a 1 M solution of Tris–OH. Then, the test sample was subjected to filtration through a polyethersulfone membrane with a pore diameter of 0.22 μm.

[4] = biological target: T1, human cystathionine-γ-lyase (hCSE) (Homo sapiens, UniProt P32929); experiment: IC50 assay: inhibition of H2S production by purified hCSE, WSP5 fluorescent probe; type: biochemical; conditions: for IC50: purified hCSE 0.02 μM, 100 μM L-cysteine, WSP5 probe, mean ± SD
T1 construct: His6-TEV (N, cleaved yes); host or cells: E. coli
Description: as §1, §2

[5] = HEK293 cytotoxicity assay (Alamar Blue); type: cell-based; conditions: human, HEK293, 72 h
Description: The HEK 293 cell line was obtained from the European Collection of Authenticated Cell Cultures (ECACC, cat. # 85120602, Salisbury, UK). The cells were grown in a monolayer culture in Dulbecco’s Modified Eagle’s Medium (DMEM) (PanEco, Moscow, Russia), supplemented with 2 mM L-glutamine, 1% of a penicillin/streptomycin solution (Capricorn Scientific, Ebsdorfergrund, Germany), and 10% of heat inactivated fetal bovine serum (HyClone, Cytiva, Marlborough, MA, USA) in a humidified atmosphere containing 5% of CO2 at 37 °C (Binder, Germany). For the assay, HEK 293 cells were seeded in a 96-well plate (Corning, NY, USA) in 100 μL of the complete culture medium, at a final density of 2 × 10^3 cells/well, and were cultured for 24 h for proper attachment. Subsequently, the medium was removed, and the cells were exposed to a tested inhibitor at different concentrations for 72 h in 100 μL of the fresh complete culture medium. The sensitivity of the cells to the compounds was detected using the vital dye Alamar Blue (Invitrogen, San Diego, CA, USA). The Alamar Blue assay was performed according to the procedure described by O’Brien et al.. After incubation with the tested bCSE inhibitors, 10 μL of the Alamar Blue reagent was added into each well, the cell culture plates were returned to the humidified incubator, and the fluorescence was read after 3 h. The plates were exposed to an excitation light of 545 nm wavelength, and emission at 600 nm was measured on the CLARIOstar Plus (BMG LABTECH GmbH, Ortenberg, Germany). To determine half-maximal cytotoxic concentration (CC50), a four-parameter sigmoidal curve model (GraphPad Prism 8 software) was fitted to the measurement data.

[6] = in vitro
Description: A test compound (final concentration 10 μM) was incubated at 37 °C in SGF, SIF, or human plasma for 2, 2, or 4 h, respectively. 100 μL aliquots were taken from each sample and 300 μL of acetonitrile containing an internal standard was added. […] All compounds were tested in triplicate. The percentage of a remaining compound after incubation was determined based on the chromatographic peak area of the sample after incubation and that of time zero (freshly prepared and injected) sample.

[7] = IC50 (uM), bCSE enzymatic IC50, rounded, repeated in Table S13
[8] = IC50 (uM), bCSE enzymatic IC50, rounded, repeated in Table S14
[9] = IC50 (uM), bCSE enzymatic IC50, rounded, repeated in Table S15
[10] = IC50 biochemical assay bCSE, purified bCSE 0.02 μM, 100 μM L-cysteine, WSP5 probe, mean ± SD
[11] = read-out: IC50 biochemical assay hCSE

T1 sequence (P32929 whole entry): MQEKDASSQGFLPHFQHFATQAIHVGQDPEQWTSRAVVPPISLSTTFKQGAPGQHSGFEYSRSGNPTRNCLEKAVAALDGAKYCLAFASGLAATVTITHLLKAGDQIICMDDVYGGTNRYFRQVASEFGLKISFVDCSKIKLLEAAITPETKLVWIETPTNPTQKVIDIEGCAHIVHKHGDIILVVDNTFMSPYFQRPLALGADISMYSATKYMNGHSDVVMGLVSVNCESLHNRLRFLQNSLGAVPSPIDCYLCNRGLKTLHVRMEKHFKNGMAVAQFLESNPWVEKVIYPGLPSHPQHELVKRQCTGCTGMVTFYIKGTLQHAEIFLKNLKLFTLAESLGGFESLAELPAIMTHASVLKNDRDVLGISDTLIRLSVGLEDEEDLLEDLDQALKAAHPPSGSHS
Chain of S. aureus cystathionine-γ-lyase (bCSE) (A0A0H3K724 entry or part of it): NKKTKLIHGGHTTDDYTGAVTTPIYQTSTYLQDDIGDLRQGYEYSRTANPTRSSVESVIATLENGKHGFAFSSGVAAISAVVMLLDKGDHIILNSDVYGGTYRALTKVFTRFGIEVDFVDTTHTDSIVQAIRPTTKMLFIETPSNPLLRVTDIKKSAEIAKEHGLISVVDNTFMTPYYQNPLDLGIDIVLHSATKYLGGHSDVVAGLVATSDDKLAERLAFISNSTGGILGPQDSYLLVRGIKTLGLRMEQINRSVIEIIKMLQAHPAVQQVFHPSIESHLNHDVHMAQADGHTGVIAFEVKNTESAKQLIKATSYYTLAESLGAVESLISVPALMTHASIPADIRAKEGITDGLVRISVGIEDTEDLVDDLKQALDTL

## CNC(C)C1CCC(N)C(OC2C(N)CC(N)C(OC3OCC(C)(O)C(NC)C3O)C2O)O1 (stereo not drawn) [Gentamicin, gentamicin]
[1]
  susceptibility of isolate (Sensitive to / Resistant to): Resistant to
[2]
  MIC of antibiotic alone: > 512 mg/L

## CCN1CCN(C(=O)N[C@@H](C(=O)N[C@@H]2C(=O)N3[C@@H]2SC(C)(C)[C@@H]3C(=O)O)c2ccccc2)C(=O)C1=O [piperacillin]
[1]
  susceptibility of isolate (Sensitive to / Resistant to): Resistant to

## CC(C)(O/N=C(\C(=O)N[C@@H]1C(=O)N2C(C(=O)[O-])=C(C[n+]3ccccc3)CS[C@H]12)c1csc(N)n1)C(=O)O [ceftazidime]
[1]
  susceptibility of isolate (Sensitive to / Resistant to): Resistant to

## O=C(O)c1cccn1Cc1ccc2ccccc2c1 [Compound 5b]
[3]; [7]
  IC50: > 500 µM
[3]; [8]
  IC50: > 500 µM
[3]; [9]
  IC50: > 500 µM
[3]; [10]
  IC50: > 500 µM
[4]; [11]
  IC50: > 500 µM
[5]; HEK293 cells
  CC50 at 72 h: 848 ± 72.2 µM

## NC[C@H]1O[C@H](O[C@H]2[C@H](O)[C@@H](O[C@H]3O[C@H](CO)[C@@H](O)[C@H](N)[C@H]3O)[C@H](N)C[C@@H]2N)[C@H](N)C[C@@H]1O [tobramycin]
[1]
  susceptibility of isolate (Sensitive to / Resistant to): Resistant to

## O=C(O)c1cccn1Cc1cccc2ccccc12 [Compound 5a]
[3]; [7]
  IC50: 289 µM
[3]; [8]
  IC50: 289 µM
[3]; [9]
  IC50: 289 µM
[3]; [10]
  IC50: 289 ± 30.4 µM
[4]; [11]
  IC50: > 500 µM
[5]; HEK293 cells
  CC50 at 72 h: 460 ± 51.1 µM

## C[C@H]1COc2c(N3CCN(C)CC3)c(F)cc3c(=O)c(C(=O)O)cn1c23 [levofloxacin]
[1]
  susceptibility of isolate (Sensitive to / Resistant to): Resistant to

## COc1ccc2[nH]c([S+]([O-])Cc3ncc(C)c(OC)c3C)nc2c1 (stereo not drawn) [Omeprazole, reference compound]
[6]; simulated gi fluid, 2 h, 10 μM
  Stability in SIF, % Remaining at 2 h: 90.5%
[6]; simulated gi fluid, Stability in SGF
  remaining at 2 h, 10 μM: < 0.1%
[6]; simulated gi fluid, Stability in SIF
  remaining at 2 h, 10 μM: 90.5 ± 10%

## O=C(O)c1cc2ccccc2n1Cc1ccc2ccccc2c1 [Compound 2b]
[3]; [7]
  IC50: 71 µM
[3]; [8]
  IC50: 71 µM
[3]; [9]
  IC50: 71 µM
[3]; [10]
  IC50: 71.1 ± 4.2 µM
[4]; [11]
  IC50: 285 ± 14.6 µM
[5]; HEK293 cells
  CC50 at 72 h: 368 ± 32.8 µM

## O=C(O)c1ccc2c(ccn2Cc2ccc3ccccc3c2)c1 [Compound 4b]
[3]; [7]
  IC50: 110 µM
[3]; [8]
  IC50: 110 µM
[3]; [9]
  IC50: 110 µM
[3]; [10]
  IC50: 110 ± 11.7 µM
[4]; [11]
  IC50: > 500 µM
[5]; HEK293 cells
  CC50 at 72 h: 217 ± 93.2 µM

## O=C(O)c1cn(Cc2cccc3ccccc23)c2ccccc12 [Compound 1a]
[3]
  activity toward bCSE (in words): did not show noticeable activity
[3]; [10]
  IC50: > 500 µM
[4]
  activity toward hCSE (in words): did not show noticeable activity
[4]; IC50 biochemical assay hCSE
  IC50: > 500 µM
[5]
  CC50 at 72 h: 432 ± 37.5 µM

## CC(C)[N+](C)(CCOC(=O)C1c2ccccc2Oc2ccccc21)C(C)C [Propantheline, propantheline bromide, reference compound]
[6]; 4 h, 10 μM
  Stability in human plasma, % Remaining at 4 h: 0.2%
[6]; human, plasma, Stability in human plasma, % Remaining at 4 h
  remaining at 4 h, 10 μM: 0.21 ± 0.04%

## O=C(O)c1cn(Cc2ccc3ccccc3c2)c2ccccc12 [Compound 1b]
[3]
  activity toward bCSE (in words): did not show noticeable activity
[3]; [7]
  IC50: > 500 µM
[3]; [8]
  IC50: > 500 µM
[3]; [10]
  IC50: > 500 µM
[4]
  activity toward hCSE (in words): did not show noticeable activity
[4]; IC50 biochemical assay hCSE
  IC50: > 500 µM
[5]
  CC50 at 72 h: 423 ± 71.8 µM

## O=C(O)c1ccc2ccn(Cc3cccc4ccccc34)c2c1 [Compound 3a]
[3]; [7]
  IC50: 79 µM
[3]; [8]
  IC50: 79 µM
[3]; [9]
  IC50: 79 µM
[3]; [10]
  IC50: 79.3 ± 5.9 µM
[4]; [11]
  IC50: 472 ± 37.3 µM
[5]; HEK293 cells
  CC50 at 72 h: 452 ± 21.5 µM

## CO/N=C(\C(=O)N[C@@H]1C(=O)N2C(C(=O)O)=C(CSc3nc(=O)c(=O)[nH]n3C)CS[C@H]12)c1csc(N)n1 [ceftriaxone]
[1]
  susceptibility of isolate (Sensitive to / Resistant to): Resistant to

## Cc1nnc(SCC2=C(C(=O)O)N3C(=O)[C@@H](NC(=O)Cn4cnnn4)[C@H]3SC2)s1 [cefazolin]
[1]
  susceptibility of isolate (Sensitive to / Resistant to): Resistant to

## O=C(O)c1cn(C2CC2)c2cc(N3CCNCC3)c(F)cc2c1=O [ciprofloxacin]
[1]
  susceptibility of isolate (Sensitive to / Resistant to): Resistant to

## C#CC[C@H](N)C(=O)O (racemic) [PAG, DL-propargylglycine, reference compound]
[3]
  Hill slope of dose-response curve toward bCSE: approximately two
[3]; [10]
  IC50: 24.3 ± 0.7 µM
[4]
  Hill slope of dose-response curve toward hCSE: ~1.0
[4]; [11]
  IC50: 0.17 ± 0.02 µM

## COc1cccc2c1C(=O)c1c(O)c3c(c(O)c1C2=O)C[C@@](O)(C(=O)CO)C[C@@H]3O[C@H]1C[C@H](N)[C@H](O)[C@H](C)O1 [Doxorubicin, reference compound]
[5]; HEK293 cells
  CC50 at 72 h: 1.3 ± 0.71 µM

## CO/N=C(\C(=O)N[C@@H]1C(=O)N2C(C(=O)O)=C(COC(C)=O)CS[C@H]12)c1csc(N)n1 [cefotaxime]
[1]
  susceptibility of isolate (Sensitive to / Resistant to): Resistant to

## NCC[C@H](O)C(=O)N[C@@H]1C[C@H](N)[C@@H](O[C@H]2O[C@H](CN)[C@@H](O)[C@H](O)[C@H]2O)[C@H](O)[C@H]1O[C@H]1O[C@H](CO)[C@@H](O)[C@H](N)[C@H]1O [amikacin]
[1]
  susceptibility of isolate (Sensitive to / Resistant to): Resistant to
